The source of these data is publication PMC12434668 (Journal of Medicinal Chemistry, 2025).

In brackets after ≈: the same amount, converted by molar mass. Where two headings read alike, the source gives them in different places.

Details of data set [1]: method as in earlier work. As to conditions: ref 66 (number lost in text); cited from earlier work.
A short description of data set [2]: Mouse pharmacokinetic analyses (i.v. and oral). The data set is classed as in vivo. The note with it: plasma. Put shortly:
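Mice received compound i.v. or orally in 10% ethanol/10% Cremophor EL; alternative vehicles (20% Phosphal IPG, 20% Phosphal MCT, 10% or 40% HP-β-CD) were also screened. Plasma drug levels at set time points were quantified by HPLC–MS/MS with internal standard after acetonitrile precipitation; PK parameters derived by noncompartmental analysis.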

For data set [3], the system named is A427 cell line-derived NSCLC xenograft. Put plainly: Subcutaneous A427 NSCLC xenograft efficacy study. The data set is classed as in vivo. The note with it: for tumor regressions (day 28): animals regressing / group. From the text: Female BomTac:NMRI-Foxn1nu mice and CB17/Icr-Prkdc(scid)/IcrCrl and were obtained from Taconic Denmark at an age of 6–8 weeks. After arrival of the local animal facility at Boehringer Ingelheim RCV GmbH & Co KG (institutional approval–Amt der Wiener Landesregierung, Magistratsabteilung 58, GZ: 135147/2013/4) mice were allowed to adjust to housing conditions at least for 5 days before the start of the experiment. Mice were group-housed under pathogen-free and controlled environmental conditions and handled according to the institutional, governmental and European Union guidelines (Austrian Animal Protection Laws, GV-SOLAS and FELASA guidelines). Animal studies were approved by the internal ethics committee and the local governmental committee (Amt der Wiener Landesregierung, Magistratsabteilung 58). To establish subcutaneous tumors mice were injected with 5 × 10^6 A427 cells in Matrigel (CB17/Icr-Prkdc(scid)/IcrCrl. Tumor diameters were measured with a caliper three times a week. The volume of each tumor [in mm^3] was calculated according to the formula “tumor volume = length*diameter^2*π/6.” To monitor side effects of treatment, mice were inspected daily for abnormalities and body weight was determined. Animals were sacrificed when the tumors reached a size of 1500 mm^3. Mice were dispatched randomly into treatment groups when the tumor size was 160 mm^3. Tumors were reported as regressing when the tumor volume at a given day was below the tumor volume at treatment start.

The subject of another data set is Bcl-2. Nature of the data set: Selectivity for Mcl-1 over Bcl-2. The format is binding.
Data set [4] deals with caspase 3/7 in K562 cells. Nature of the data set: Caspase 3/7 induction assay (Caspase-Glo), K562. The data set is classed as cell-based. As to conditions: compound treatment for 3 h. As to the method: (§1) Cells were treated with a 10-point compound titration and incubated at 37 °C for 3 h.
The subject of the next data set is K562 cells. Put plainly: In vitro proliferation counterscreen, Mcl-1 insensitive K562. The format is cell-based.
A further data set deals with NCI-H929 cells. Nature of the data set: In vitro proliferation assay (CellTiter-Glo), H929. The format is cell-based. The note with it: Homo sapiens, H929 cell line, average of at least n = 2, triplicate. In short, it runs like this:
(§2)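 Cells (A427 in RPMI1640 + 10% FCS; NCI-H929 in RPMI1640 + 10% FCS + 0.05 mM mercaptoethanol) were treated in triplicate, 0.5% DMSO final, for 72 or 96 h. CellTiter-Glo luminescence was normalized to day-0 cells, and IC50 values came from four-parameter sigmoidal fits.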

The test system of data set [5] is caspase 3/7 in H929 cells. Put plainly: Caspase 3/7 induction assay (Caspase-Glo), H929. The data set is classed as cell-based. As to conditions: compound treatment for 3 h. As to the method: as §1
The subject of data set [6] is caspase 3/7 in A427 cells. Put plainly: Caspase 3/7 induction assay (Caspase-Glo), A427. The data set is classed as cell-based. As to conditions: compound treatment for 3 h. As to the method:
as §1

In another data set the test system is Bcl-xL. Nature of the data set: Selectivity for Mcl-1 over Bcl-xL. The format is binding.
For the next data set, the target named is T1, Mcl-1 (Homo sapiens, UniProt Q07820).
T1 construct: Briefly, a previously reported construct was subcloned into an expression vector (pDEST-HisMBP); MBP (from vector pDEST-HisMBP); made in house; host or cells: Escherichia coli BL21 CodonPlus (DE3) RIL
Nature of the data set: TR-FRET binding assay (FITC-Bak peptide competition). The note with it: in the presence of 1% fetal bovine serum; average of at least n = 2; read-out: TRFRET, Mcl-1 Ki.

A short description of data set [7]: Kinetic aqueous solubility. The data set is classed as physicochemical. The note with it: aqueous medium at pH 6.8, pH 6.8.
For the next data set, the system named is A427 cells. Put plainly: In vitro proliferation assay (CellTiter-Glo), A427. The data set is classed as cell-based. The note with it: Homo sapiens, A-427; A427 cell line; average of at least n = 2, triplicate. Put shortly:
as §2

T1 sequence (Q07820 whole entry): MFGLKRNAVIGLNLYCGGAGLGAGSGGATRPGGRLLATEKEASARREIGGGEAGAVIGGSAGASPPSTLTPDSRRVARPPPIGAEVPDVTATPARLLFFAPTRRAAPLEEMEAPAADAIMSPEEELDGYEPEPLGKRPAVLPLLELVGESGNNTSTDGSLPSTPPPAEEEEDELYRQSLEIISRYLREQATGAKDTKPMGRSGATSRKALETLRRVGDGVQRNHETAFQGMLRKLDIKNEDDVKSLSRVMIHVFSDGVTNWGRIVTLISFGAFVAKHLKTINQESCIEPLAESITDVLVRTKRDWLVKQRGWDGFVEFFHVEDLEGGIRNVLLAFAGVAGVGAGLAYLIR

Consider `COc1c(OCC2CCOCC2)cc(N2C[C@@H](C)n3c(c(CCCOc4cc(C)c(Cl)c(C)c4)c4ccc(Cl)c(-c5c(C)nc(C)nc5C)c43)C2=O)c2c1cc(C(=O)O)n2C` [Compound 1], for which, in [1], the “dog CL” value is 5.2 mL/min/kg. In data set [2] (iv, 40 mg/kg q14d i.v., xenograft study, read-out: AUC), the AUC was 198 µM·h. Moreover, the “tumor regressions (day 28)” value in data set [3] (40 mg/kg q14d i.v.) is given as 0/8.
As for `COc1cc2c3c(cc(C(=O)O)n3CCCOCc3nn(C)cc3-c3c(Cl)ccc4c(CCCOc5cc(C)c(Cl)c(C)c5)c5n(c34)[C@H](C)CN2C5=O)c1OC` [Compound 13, (2^63^4 S a ,1^72^2 R a ,2^4 R)-2^7-Chloro-2^10-(3-(4-chloro-3,5-dimethylphenoxy)propyl)-1^4,1^5-dimethoxy-2^4,3^1-dimethyl-2^1-oxo-2^1,2^2,2^3,2^4-tetrahydro-1^1 H,3^1 H-5-oxa-2(2,6)-pyrazino[1,2-a]indola-1(7,1)-indola-3(4,3)-pyrazolacyclooctaphane-1^2-carboxylic Acid], the “selectivity for Mcl-1 over Bcl-2” value with Bcl-2 is > 50,000 fold. Besides, the EC50 is > 3120 nM in [4] (Homo sapiens, K562); 13 nM in [5] (Homo sapiens, NCI-H929); 7.8 nM in data set [6] (Homo sapiens, A-427). Also, the “K562 Caspase 3/7 fold over vehicle (FoV)” value in data set [4] came out at 1.3 fold. Further, the “selectivity for Mcl-1-sensitive cell lines over the K562 control” value in the data set with K562 cells (GI50 ratio) is on record as > 900 fold. Also, the GI50 in the data set with K562 cells (Homo sapiens, Mcl-1 insensitive K562, top concentration tested 12.5 µM) is > 12500 nM; in the data set with NCI-H929 cells, 14 ± 4 nM; in the data set with A427 cells it was 25 ± 9 nM. Besides, the “H929 Caspase 3/7 maximum activity, fold over vehicle (FoV)” value in [5] is on record as 16 fold. Moreover, the AUC in data set [2] (iv, 20 mg/kg, read-out: AUCIV) was 60.9 µM·h; in data set [2] (iv, 30 mg/kg q14d i.v., xenograft study, read-out: AUC), 144 µM·h; in data set [2] (iv, 60 mg/kg q14d i.v., xenograft study, read-out: AUC), 481 µM·h; in data set [2] (oral, 20 mg/kg, read-out: AUCPO), 0.625 µM·h. Besides, the clearance in [2] (iv, dosed at 20 mg/kg, read-out: i.v. mouse CL) came out at 7.4 mL/min/kg; in [2] (iv, supplementary CSV, unit not given (Table 1: 20 mg/kg, 14 and 16 at 10 mg/kg), read-out: CL) it was 7.4 mL/min/kg. Moreover, in data set [2] (po, read-out: oral bioavailability (F)), the bioavailability came to 1%. Further, in [3] (60 mg/kg q14d i.v.), the “tolerability, body weight” value was “body weight behaved similarly to the vehicle control cohort”. Moreover, the “tumor regressions (day 28)” value in [3] (60 mg/kg q14d i.v.) is listed as 7/8. Moreover, the “tumor outgrowth, study day” value in data set [3] (sc, 60 mg/kg, 480 h) is given as ~50 study day. In addition, the “A427 Caspase 3/7 fold over vehicle (FoV)” value in data set [6] turned out to be 16 fold. The “selectivity for Mcl-1 over Bcl-xL” value in the data set with Bcl-xL is > 50,000 fold. Besides, at Mcl-1, the Ki is < 0.08 nM. This compound registered a kinetic solubility in data set [7] of 85 µg/mL (≈ 106 µM).
